# In the supplement of paper PMC10307832:
# Columns and labels:
# Assay in all cases: relative viability (nuclei count vs DMSO), 5 days (fraction); higher = more cells survive
# BEN = system: BEN
# Outline: (§1)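 Each reported value is a median over duplicate plates. It expresses relative viability: treated-well nuclei count divided by vehicle-well nuclei count. Lung cancer cell lines in 1536-well plates were dosed by pin tool a day after seeding, alone with one drug or with a fixed anchor-drug dose plus five library-drug doses (not always all listed) in √10 steps, and nuclei were counted after 5 days.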
# HCC-15 = system: HCC-15
# Outline: as §1
# HCC-78 = system: HCC-78
# Outline: as §1
# LC-2-ad = system: LC-2-ad
# Outline: as §1
# LCLC-97TM1 = system: LCLC-97TM1
# Outline: as §1
# LK-2 = system: LK-2
# Outline: as §1
# LU99A = system: LU99A
# Outline: as §1
# LXF-289 = system: LXF-289
# Outline: as §1
# NCI-H1651 = system: NCI-H1651
# Outline: as §1
# NCI-H1666 = system: NCI-H1666
# Outline: as §1
# NCI-H1944 = system: NCI-H1944
# Outline: as §1
# NCI-H2087 = system: NCI-H2087
# Outline: as §1
# NCI-H322M = system: NCI-H322M
# Outline: as §1
# NCI-H358 = system: NCI-H358
# Outline: as §1
# NCI-H596 = system: NCI-H596
# Outline: as §1
# NCI-H650 = system: NCI-H650
# Outline: as §1
# NCI-H661 = system: NCI-H661
# Outline: as §1
# NCI-H838 = system: NCI-H838
# Outline: as §1
# PC-3 [JPC-3] = system: PC-3 [JPC-3]
# Outline: as §1
# SK-MES-1 = system: SK-MES-1
# Outline: as §1
# UMC-11 = system: UMC-11
# Outline: as §1
smiles,measurement,setting,value
O=C(O)c1ccc(-c2c[nH]c3ncc(-c4ccccc4)cc23)cc1C1CCCC1 + C[C@]1(O)C[C@@H](c2nc(-c3ccc4ccc(-c5ccccc5)nc4c3)c3c(N)nccn32)C1 [Linsitinib] (partner 1 µM),relative viability,BEN; first compound 0.04 µM,1.03
same,relative viability,BEN; first compound 0.1265 µM,1.03
same,relative viability,BEN; first compound 0.4 µM,0.931
same,relative viability,BEN; first compound 1.265 µM,0.859
same,relative viability,HCC-15; first compound 0.04 µM,0.869
same,relative viability,HCC-15; first compound 0.1265 µM,0.928
same,relative viability,HCC-15; first compound 0.4 µM,0.785
same,relative viability,HCC-15; first compound 1.265 µM,0.567
same,relative viability,HCC-78; first compound 0.04 µM,0.431
same,relative viability,HCC-78; first compound 0.1265 µM,0.571
same,relative viability,HCC-78; first compound 0.4 µM,0.545
same,relative viability,HCC-78; first compound 1.265 µM,0.534
same,relative viability,LC-2-ad; first compound 0.04 µM,0.81
same,relative viability,LC-2-ad; first compound 0.1265 µM,0.885
same,relative viability,LC-2-ad; first compound 0.4 µM,0.775
same,relative viability,LC-2-ad; first compound 1.265 µM,0.425
same,relative viability,LCLC-97TM1; first compound 0.04 µM,0.204
same,relative viability,LCLC-97TM1; first compound 0.1265 µM,0.218
same,relative viability,LCLC-97TM1; first compound 0.4 µM,0.175
same,relative viability,LCLC-97TM1; first compound 1.265 µM,0.166
same,relative viability,LK-2; first compound 0.04 µM,0.667
same,relative viability,LK-2; first compound 0.1265 µM,0.587
same,relative viability,LK-2; first compound 0.4 µM,0.549
same,relative viability,LK-2; first compound 1.265 µM,0.902
same,relative viability,LU99A; first compound 0.04 µM,0.548
same,relative viability,LU99A; first compound 0.1265 µM,0.528
same,relative viability,LU99A; first compound 0.4 µM,0.533
same,relative viability,LU99A; first compound 1.265 µM,0.511
same,relative viability,LXF-289; first compound 0.04 µM,0.94
same,relative viability,LXF-289; first compound 0.1265 µM,0.937
same,relative viability,LXF-289; first compound 0.4 µM,0.706
same,relative viability,LXF-289; first compound 1.265 µM,0.322
same,relative viability,NCI-H1651; first compound 0.04 µM,0.997
same,relative viability,NCI-H1651; first compound 0.1265 µM,0.968
same,relative viability,NCI-H1651; first compound 0.4 µM,0.912
same,relative viability,NCI-H1651; first compound 1.265 µM,0.781
same,relative viability,NCI-H1666; first compound 0.04 µM,0.755
same,relative viability,NCI-H1666; first compound 0.1265 µM,0.829
same,relative viability,NCI-H1666; first compound 0.4 µM,0.703
same,relative viability,NCI-H1666; first compound 1.265 µM,0.81
same,relative viability,NCI-H1944; first compound 0.04 µM,1.18
same,relative viability,NCI-H1944; first compound 0.1265 µM,1.39
same,relative viability,NCI-H1944; first compound 0.4 µM,1.04
same,relative viability,NCI-H1944; first compound 1.265 µM,1.02
same,relative viability,NCI-H2087; first compound 0.04 µM,0.959
same,relative viability,NCI-H2087; first compound 0.1265 µM,1.03
same,relative viability,NCI-H2087; first compound 0.4 µM,0.97
same,relative viability,NCI-H2087; first compound 1.265 µM,0.859
same,relative viability,NCI-H322M; first compound 0.04 µM,0.913
same,relative viability,NCI-H322M; first compound 0.1265 µM,0.911
same,relative viability,NCI-H322M; first compound 0.4 µM,0.92
same,relative viability,NCI-H322M; first compound 1.265 µM,0.791
same,relative viability,NCI-H358; first compound 0.04 µM,0.649
same,relative viability,NCI-H358; first compound 0.1265 µM,0.819
same,relative viability,NCI-H358; first compound 0.4 µM,0.674
same,relative viability,NCI-H358; first compound 1.265 µM,0.386
same,relative viability,NCI-H596; first compound 0.04 µM,0.974
same,relative viability,NCI-H596; first compound 0.1265 µM,1.05
same,relative viability,NCI-H596; first compound 0.4 µM,1.19
same,relative viability,NCI-H596; first compound 1.265 µM,1.03
same,relative viability,NCI-H650; first compound 0.04 µM,0.844
same,relative viability,NCI-H650; first compound 0.1265 µM,1.04
same,relative viability,NCI-H650; first compound 0.4 µM,0.861
same,relative viability,NCI-H650; first compound 1.265 µM,0.679
same,relative viability,NCI-H661; first compound 0.04 µM,0.576
same,relative viability,NCI-H661; first compound 0.1265 µM,0.603
same,relative viability,NCI-H661; first compound 0.4 µM,0.572
same,relative viability,NCI-H661; first compound 1.265 µM,0.736
same,relative viability,NCI-H838; first compound 0.04 µM,1.03
same,relative viability,NCI-H838; first compound 0.1265 µM,1.16
same,relative viability,NCI-H838; first compound 0.4 µM,1.09
same,relative viability,NCI-H838; first compound 1.265 µM,0.997
same,relative viability,PC-3 [JPC-3]; first compound 0.04 µM,0.915
same,relative viability,PC-3 [JPC-3]; first compound 0.1265 µM,0.986
same,relative viability,PC-3 [JPC-3]; first compound 0.4 µM,0.943
same,relative viability,PC-3 [JPC-3]; first compound 1.265 µM,0.788
same,relative viability,SK-MES-1; first compound 0.04 µM,1.18
same,relative viability,SK-MES-1; first compound 0.1265 µM,1.09
same,relative viability,SK-MES-1; first compound 0.4 µM,0.997
same,relative viability,SK-MES-1; first compound 1.265 µM,0.749
same,relative viability,UMC-11; first compound 0.04 µM,0.98
same,relative viability,UMC-11; first compound 0.1265 µM,1.04
same,relative viability,UMC-11; first compound 0.4 µM,1.07
same,relative viability,UMC-11; first compound 1.265 µM,0.971
